From US10722491B2, “Phenol compound and combination of same with a benzodiazepine fused to 1,4-dihydropyridine for treating diseases of the central nervous and vascular systems” (UNIVERSIDAD DE LA HABANA, priority 2016, dated 2020)

Legend:
[1] = system: scopolamine cognitive deficit; test: Scopolamine-induced dementia, new-object recognition; format: in vivo, rats; details: 4 and 8 mg/kg p.o., 1 hour before scopolamine 1 mg/kg i.p.
Description: FIG. 12. Effect of KM-34 on the recognition memory of new objects. In the new-object recognition test, KM-34 (2, 4 and 8 mg/kg, p.o) was administered 1 hour prior to scopolamine (1 mg/kg, i.p.) prior to the training phase. The results are expressed as the discrimination rate of the total time by scanning the object N with respect to F. The data are expressed as mean ± SD (n=8, per group). For statistical analysis, ANOVA and Tukey's multiple comparison test were performed. Different letters differ from each other for p<0.01.
In in vivo models, KM-34 was administered orally (p.o) at a rate of 4 mL/kg body weight. Doses of 2, 4 and 8 mg/kg were evaluated as acute administration 90 minutes before the start of behavioral tests. For administration the compound was suspended in carboxymethylcellulose (CMC) 0.05%. Scopolamine bromide was dissolved in 0.9% saline solution and administered intraperitoneally as a single dose (1 mg/kg, 4 mL/kg body weight) 30 minutes prior to the initiation of the behavioral tests. […]
This trial was conducted as proposed by Capurro et al. (Capurro et al., 2013), in an open field, on two successive days. […] The tests were video-recorded for the analysis of the exploration of the objects, defined by the time of exploration that the animal performs to each object. The discrimination rates between the F and N objects were calculated as: ID=(N−F)/(N+F).

[2] = system: PC12 cells; test: Cytoprotection against H2O2 damage in PC12 cells (MTT); format: cell-based
Description: FIG. 7. Cytoprotective effect of KM-34 (1-100 μM) against damage induced by H2O2 (150 μM) in cultures of PC12 cells. Viability (% live cells) was determined by the MTT assay. Cells were seeded at a density of 5×10^5 cells/mL in a 96-well plate. The KM-34 was added simultaneously to the addition of the H2O2 mixture. The culture was then allowed to incubate at 37° C, […] and 5% CO 2 for 4 hours. After this time the supernatant was removed and the cells were incubated with 20 μg of MTT for an additional 2 hours and the absorbance at 450 nm was measured with reference to 630 nm. The results are expressed as percentage of live cells relative to the control (undamaged cells, 100% live cells). The * represents significant differences (p<0.05) with respect to the H2O2 control.
FIG. 15. The survival rate for […] administered 150 μM H2O2 is shown. The control group was not administered 150 μM H2O2. The remaining four groups were administered 150 μM H2O2. The “H2O2 150 μM” group was not administered any compounds of the invention. The “JM 1 μM” group was administered 1 μM JM-20. The “KM 0.1 μM” group was administered 0.1 μM KM-34. The “JM 1 μM+KM 0.1 μM” group was administered 1 μM JM-20 and 0.1 μM KM-34.
H2O2 is formed in vivo spontaneously or enzymatically. At low concentrations this may be poorly reactive, however at high concentrations it may interact with and generate inactivation of the energy generating systems of the cells. In addition H2O2 is able to oxidize —SH groups of proteins and cause DNA strand rupture. Their most damaging effect is the formation of catalyzed transition metals by the Fenton-Habber-Weiss reaction (Martinez, 2005). This is based on the use of H2O2 in this test, with the aim of observing if the KM-34 is capable of reversing the damages caused by the chemical agent.

[3] = system: scopolamine cognitive deficit; test: Scopolamine-induced dementia, T maze spontaneous alternation; format: in vivo, rats; details: 2, 4 and 8 mg/kg p.o., 1 hour before scopolamine 1 mg/kg i.p.
Description: FIG. 11. Effect of KM-34 on spatial memory. In the T labyrinth, KM-34 (2, 4 and 8 mg/k, p.o) was given 1 hour prior to scopolamine (1 mg/kg, i.p.). Data are expressed as mean ± SD (n=7, per group) of the percentage of spontaneous alternation. For statistical anal sis ANOVA and Tukey's multiple comparison test were performed. Different letters differ from each other for p<0.01. In in vivo models, KM-34 was administered orally (p.o) at a rate of 4 mL/kg body weight. Doses of 2, 4 and 8 mg/kg were evaluated as acute administration 90 minutes before the start of behavioral tests. For administration the compound was suspended in carboxymethylcellulose (CMC) 0.05%. Scopolamine bromide was dissolved in 0.9% saline solution and administered intraperitoneally as a single dose (1 mg/kg, 4 mL/kg body weight) 30 minutes prior to the initiation of the behavioral tests. The animals were randomly selected and divided into 5 experimental groups with different treatments (n=7, per group): control group (CMC and saline), vehicle group (CMC and scopolamine 1 mg/kg), KM-34 (KM-34 4 mg/kg and scopolamine 1 mg/kg) and (KM-34 8 mg/kg and scopolamine 1 mg/kg). […] The series of entries to each arm was recorded and the percentage of alternation was calculated as: (number of alternations performed/total of possible alternations)×100. […]

CC1(C)OC(=O)C(=Cc2ccc(O)c(O)c2)C(=O)O1 [KM-34, 5-[(3,4-dihydroxyphenyl)methylidene]-2,2-dimethyl-1,3-dioxane-4,6-dione]
Recognition memory, discrimination index of new objects [1]: able to revert the affectation on the learning and the memory of term recognition induced by scopolamine | Concentration achieving significant cellular survival against H2O2 ([2]; 150 μM H2O2, 4 hours): higher than 5 μM | % cell survival ([2]; 150 μM H2O2, concentrations higher than 50 μM): ~90% | Cellular survival response ([2]; 150 μM H2O2, from 25 μM KM-34): higher than 50% | Spatial memory, percentage of spontaneous alternation in T maze [3]: significantly (p<0.01) protected from spatial memory damage
